Experimental data: patent US20200108043A1, “COMPOUNDS AND COMPOSITIONS FOR EXTENDING LIFESPAN OF A SUBJECT” (YALE UNIVERSITY, priority 2017, published 2020)

Legend:
S. cerevisiae = assay type: cell-based
Description: To obtain the single-cell level data for the age and generation-durations of replicatively aging mother cells, data reported in Liu, P., et al., Cell Rep. 634-644 (2015) was re-analyzed. The data was collected in the same media condition (CSM 2% glucose) as reported elsewhere herein. Cells were grown for ˜24 hours in CSM 2% glucose prior to loading to the microfluidic device. Once cells were loaded, media was swapped to provide CSM 2% glucose control media (untreated), media containing DMSO as a vehicle control (American Bio AB00435), media containing 10 μM terreic acid (Sigma SML0480), media containing 10 μM mycophenolic acid (Sigma M5255), or media containing another compound at the indicated concentration. An automated microscope was used to track […], and replicative lifespan was later determined by counting the number of daughters produced before death. In the case of compound validation, only newborn cells were included in the lifespan experiment. To compare the replicative lifespan of labeled and unlabeled cells, only cells that were present within the traps at the start of the experiment were included. For these experiments, cells were loaded to the microfluidic device at an increased rate of 100 μL/min to increase the number of trapped mother cells. Green fluorescent images were also taken at the start of the experiment to confirm that the cells were visibly labeled.
Differences in lifespan characteristics were assessed through Log-Rank test using MATLAB with a cut-off value of P=0.05. The script for Log-Rank test was downloaded from MATLAB. Differences in proteasome activity were assessed using the unpaired, two-tailed, parametric t-test function of the GraphPad Prism software.
The Longevity Placement Test (LPT) was designed as a mutually exclusive, collectively exhaustive test to determine the relationship of a longevity intervention to a known genetic regulator of lifespan. For a given intervention that extends lifespan, any of three possible relationships may exist relative to a known genetic regulator of lifespan. (1) The intervention may act to extend lifespan independently from the known regulator. (2) The […] may act downstream from the known regulator, converging on a single component of the known regulator's lifespan pathway. (3) The intervention may act upstream from or upon the known regulator, ultimately modulating lifespan through the genetic regulator.
In Step 1 of the LPT, the longevity intervention is applied to a strain in which a genetic regulator of lifespan is deleted. In the event that lifespan extension from the longevity intervention is observed in this background, only possibilities (1) and (2) above remain valid (FIG. 7B). If no lifespan extension is observed, then possibilities (2) and (3) remain valid. Possibility (2) cannot be ruled out in this step, since non-saturating action by the genetic regulator could leave room for lifespan extension by the longevity intervention, while saturating action would preclude it.
In Step 2 of the LPT, an epistatic agent, which prevents lifespan extension from the longevity agent, is applied to a strain in which some upstream member of the genetic regulator's lifespan pathway has been modified to extend lifespan. This step differentiates possibility (2) from the remaining possibility after Step 1. In the event that lifespan extension from the genetic regulator's pathway is suppressed by the epistatic agent, this determines that possibility (2) is correct. In the event that no epistasis is observed, the remaining possibility, (1) or (3), is correct (FIG. 7C).

Saccharomyces cerevisiae = assay: High-Life (High throughput replicative Lifespan measurement) flow cytometry assay in MEP yeast; assay type: cell-based; conditions: 10 μM, 24 hours in culture, 3-4 replicate wells, repeat of screen hits
Description: Cells were labeled with NHS-fluorescein as described above, then diluted to 20 cells/μL in media. 80 μL/well was aliquoted to 384-well plates, which were covered with a breathable membrane and placed on a shaker platform in a humidified incubator. After 3 hours, the plates were removed from the incubator and each well was treated with 20 μL pre-warmed, 30° C. 5 μM β-estradiol in media. In the case of ibuprofen or compound-treated wells, the compound was diluted in this volume at a 5× concentration to achieve a final concentration of 10 μM, or 100 μM for ibuprofen. The plates were then returned to the incubator. At indicated times, one plate was removed from the incubator and placed on an autosampler cooled to 8° C. attached to a Stratedigm flow cytometer. The cytometer was set to automatically add and mix 20 μL of aqueous solution containing 60 μg/mL CF405M-WGA (Biotium 29028) and propidium iodide (Sigma P4864) prior to acquiring 80 μL of sample for each well.
In order to test the lifespan of model organisms on both a large-scale and with quick turn-around, a massively multiplexed method was developed to measure replicative lifespan in the short-lived model organisms Saccharomyces cerevisiae. The protocol uses green-fluorescent labeling to identify progenitor cells, red-fluorescent labeling to differentiate non-viable cells, and blue-fluorescent labeling of bud scars to determine replicative age (FIG. 1). Each parameter is measured using a flow cytometer.
To achieve high throughput, the measurement system was automated, and the assay was performed in 384-well plates. The assay was performed using an autosampler-equipped flow cytometer, in a volume of 100 μL. Growth of even a single cell and its progeny in such a small volume will result in nutrient starvation before the natural replicative lifespan is exhausted; therefore to circumvent this issue, High-Life experiments were performed in the background of the Mother Enrichment Program (MEP) (Lindstrom and Gottschling, Genetics. 2009 October; 183(2):413-22). MEP strains express a CRE recombinase fused to an estrogen-binding domain for only a short time after birth. In the presence of β-estradiol, the recombinase translocates to the nucleus where it can excise two essential genes that have been modified to contain the exogenous LoxP sequence. Addition of β-estradiol to the media thus renders newborn daughters inviable without affecting existing mother cells, preventing exponential growth of the cell population and nutrient depletion (FIG. 2A).
The High-Life method was then tested to determine if it was suitable to screening for compounds that extend replicative lifespan. […] The effect of these compounds on High-Life readings was assayed after 24 hours in culture at 10 μM concentration. As a positive control, ibuprofen was used.

## COc1c(C)c2c(c(O)c1C/C=C(\C)CCC(=O)O)C(=O)OC2 [mycophenolic acid]
S. cerevisiae; 10 μM MPA only first 24 hours or only after first 24 hours, compared to whole-lifespan treatment
  lifespan extension with treatment for only part of the lifespan: reduced lifespan extension compared to whole-lifespan treatment
S. cerevisiae; 10 μM MPA, 6-hour pulse between 24th and 30th hour
  lifespan extension with pulse treatment: little to no lifespan extension
S. cerevisiae; 10 μM compound, wild-type haploid cells, Replicator device
  extension of mean RLS: 20%
S. cerevisiae; absence of SIR2, ΔSIR2ΔFOB1 background
  lifespan in ΔSIR2ΔFOB1 background (LPT step 1): able to extend the lifespan
S. cerevisiae; long-lived ΔHXK2 strain
  lifespan in ΔHXK2 strain (LPT step 1): further extended lifespan
S. cerevisiae; long-lived ΔTOR1 strain
  lifespan in ΔTOR1 strain (LPT step 1): further extended lifespan
S. cerevisiae; wild-type haploid yeast BY4741, MPA without supplemental guanine vs control and guanine supplemented
  replicative lifespan (RLS) with and without supplemental guanine: extended longevity
S. cerevisiae; ΔPRE9 strain
  RLS in ΔPRE9 strain: extends RLS
S. cerevisiae; ΔUBR2 strain
  RLS in ΔUBR2 strain (LPT step 1): moderately, but not significantly, extended RLS
Saccharomyces cerevisiae
  average High-Life readings (progenitor fraction viable vs CF405M intensity) relative to controls: at least slightly above controls
